According to patent publication US10406383B2, “Apparatus for treatment of dermatological conditions” (CAREWEAR CORP., priority 2004, dated 2019):
Marks after values point to notes of the source that are not given here.

Tests used:
[1] = test system: fibrillin-rich microfibrils proximal to the dermal-epidermal junction (DEJ); assay: Seven-day patch test, fibrillin-1 immunohistochemistry; format: in vivo, human; details: patch test under occlusion
Description: (§1) The standard four-day patch test assay was extended to a seven-day period to examine the effect of the Topical 1 formulation under occlusion or delivered by ultrasound on the induction of fibrillin expression as a mechanism by which clinical signs of photoageing may be improved.
Fibrillin is a major constituent of the elastin network in the papillary dermis and plays an important role in securing the epidermis to the underlying dermis. Topical application of all-trans retinoic acid (t-RA) as a positive control ameliorates the clinical signs of photoageing.
(§2) Six healthy but photoaged female volunteers were recruited (age range 52-79 years). […]
(§3) A number of extracellular matrix (ECM) molecules known to be reduced in photoaged skin were assayed by immunohistochemistry to detail the potential effects of the Topical 1 formulation and its method of delivery. […] Also assessed were the number of epidermal keratinocytes expressing MMP-1 and RARα. […]
Sections were randomised, blinded and examined on a Nikon OPTIPHOT microscope (Tokyo, Japan). For assessment of ECM components, the degree of immunostaining was assessed on a 5 point semi-quantitative scale where 0=no staining and 4=maximal staining. […] The degree of immunostaining was scored for three high power fields per section, and the average score calculated for each site/test area. […]

[2] = test system: MMP-1 expression in epidermal keratinocytes; assay: Seven-day patch test, MMP-1 immunohistochemistry; format: in vivo, human; details: patch test under occlusion
Description: as §1
(§4) Ageing can also be monitored by examination of other molecules within the skin. Previous work has identified alterations in the expression of the enzyme matrix metalloproteinase 1 (MMP-1; essential for extracellular matrix remodelling)^3 and in the nuclear retinoid receptor retinoic acid receptor α (RARα; necessary for modulating the effects of vitamin A and its derivatives)^4. Two molecular chaperones were assessed to identify pathways for eliminating abnormal proteins; these were heat shock protein-72 (HSP72)^5 and the extracellular chaperone, clusterin^6.
as §2, §3
(§5) For cell-associated staining, the numbers of positive epidermal keratinocytes were assessed per high powered field, and the average score calculated for each site/test area. […]

[3] = test system: RARα expression in epidermal keratinocytes; assay: Seven-day patch test, RARα immunohistochemistry; format: in vivo, human; details: patch test under occlusion
Description: as §1, §4, §2, §3, §5

[4] = test system: HSP72 expression in the epidermis; assay: Seven-day patch test, HSP72 immunohistochemistry; format: in vivo, human; details: patch test under occlusion
Description: as §1, §4, §2, §3, §5

[5] = Erythema and skin tolerability observations during the trial; format: in vivo, human; details: patch test protocol
Description: Six healthy but photoaged female volunteers were recruited (age range 52-79 years). Test substances were applied separately under standard 6 mm diameter Finn chambers to the extensor aspect of the forearm: these were Topical 1 formulation (20 μl/chamber), vehicle base (20 μl/chamber) and 0.025% all-trans RA (Retin-A® cream, Janssen-Cilag Ltd., 20 μl/chamber). In addition, a baseline untreated biopsy was taken as a reference point. Formulations were applied to clean skin on days 1 and 4 of the assay. All-trans RA was applied to an untreated site on day 4. On day 8, Finn chambers were removed and 3 mm punch biopsies were obtained under 1% lignocaine anaesthesia from each of the test site. Biopsies were embedded in OCT compound (Tissue-Tek®, Miles, Ind., USA) and snap frozen in liquid nitrogen. Biopsy sites were sutured with 1×4/o ethilon and subjects instructed to return between 7-10 days for suture removal.
Ten healthy but photoaged volunteers were recruited (men: 2; female: 8; age range 40-79 years). Topical 1 formulation was applied to extensor forearms alone and with the aid of an ultrasound device (Duo Son™ unit, Orthosonics, Devon UK). Low frequency (45 kHz, 100 mW/cm^2, continuous) and high frequency (1 MHz, 1 W/cm^2 pulsed average, pulsed 20% cycle) were applied simultaneously for a period of ten minutes, during which time the ultrasound delivery head was moved over the skin. […]

[6] = test system: HSP70 mRNA; details: rats, aspirin 100 mg/kg intraperitoneally 60 min before 37° C. for 30 min; cited from earlier work
[7] = positive epidermal keratinocytes per high powered field

SMILES	Fibrillin-1 staining Mean ([1]; photoaged forearm, biopsy day 8, 5 point scale 0=no staining, 4=maximal staining, p > 0.05)	volunteers with fibrillin-1 deposition proximal to the DEJ ([1]; six volunteers)	effect on MMP-1 expression in epidermal keratinocytes ([2]; result in words)	MMP-1 staining Mean ([2]; positive epidermal keratinocytes per high powered field, p > 0.05)	effect on RARα expression in epidermal keratinocytes ([3]; result in words)	RARα staining Mean [3, 7]	effect on expression of epidermal HSP72 ([4]; result in words)	HSP72 staining Mean [4, 7]	Erythema at the site of application [5]	levels of HSP70 mRNA relative to heat treatment alone [6] [fold]
CC1=C(/C=C/C(C)=C/C=C/C(C)=C/C(=O)O)C(C)(C)CCC1 [All-trans RA, all-trans retinoic acid]	1.8241	3/6	reduced MMP-1 expression in epidermal keratinocytes, although this did not reach significance	5.3333	significantly reduced RARα expression in epidermal keratinocytes	6.0463	significantly increased the expression of epidermal HSP72	77.03**	marked erythema	–
CC(=O)Oc1ccccc1C(=O)O [aspirin, acetylsalicyclic acid]	–	–	–	–	–	–	–	–	–	3 to 4
